Measurements reported in ChEMBL document CHEMBL1128030, “Synthesis and biological evaluation of a library containing potentially 1600 amides / esters. A strategy for rapid compound generation and screening” (Bioorg Med Chem Lett, 1994).

How the values were obtained:
Neuromedin-K receptor = molecular target: T1, Neuromedin-K receptor (Homo sapiens, UniProt P29371); test: Compound was tested for its ability to displace [3H]senktide binding to human Tachykinin receptor 3 expressed in CHO cells; format: cell-based
T1 sequence (P29371 whole entry): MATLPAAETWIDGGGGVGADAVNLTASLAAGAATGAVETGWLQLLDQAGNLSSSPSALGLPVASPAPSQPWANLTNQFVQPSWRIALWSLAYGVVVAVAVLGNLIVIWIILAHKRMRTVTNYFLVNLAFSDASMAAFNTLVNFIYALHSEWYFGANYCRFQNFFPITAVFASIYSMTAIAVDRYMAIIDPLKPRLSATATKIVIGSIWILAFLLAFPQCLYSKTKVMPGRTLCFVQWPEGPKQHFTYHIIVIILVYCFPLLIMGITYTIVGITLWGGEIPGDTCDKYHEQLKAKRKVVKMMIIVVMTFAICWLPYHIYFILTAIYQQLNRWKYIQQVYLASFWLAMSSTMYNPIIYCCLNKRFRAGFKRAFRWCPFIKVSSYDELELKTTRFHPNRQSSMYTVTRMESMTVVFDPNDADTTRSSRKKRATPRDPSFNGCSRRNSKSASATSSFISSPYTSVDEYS

Interstitial collagenase = molecular target: T2, Interstitial collagenase (Homo sapiens, UniProt P03956); test: Inhibition of human recombinant MMP-I
T2 sequence (P03956 whole entry): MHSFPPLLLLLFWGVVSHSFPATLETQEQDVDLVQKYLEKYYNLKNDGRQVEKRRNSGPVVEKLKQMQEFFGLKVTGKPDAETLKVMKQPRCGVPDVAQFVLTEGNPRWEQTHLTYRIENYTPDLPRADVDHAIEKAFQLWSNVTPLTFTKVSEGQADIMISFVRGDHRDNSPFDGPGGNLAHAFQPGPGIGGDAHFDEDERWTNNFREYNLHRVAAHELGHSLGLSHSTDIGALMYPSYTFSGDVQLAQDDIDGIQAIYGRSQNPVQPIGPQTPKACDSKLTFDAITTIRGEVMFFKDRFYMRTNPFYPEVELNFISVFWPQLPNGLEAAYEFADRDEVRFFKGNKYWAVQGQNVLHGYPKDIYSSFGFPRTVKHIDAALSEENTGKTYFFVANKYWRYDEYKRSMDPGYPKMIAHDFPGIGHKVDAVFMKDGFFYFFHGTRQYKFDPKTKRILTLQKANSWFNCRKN

Structure (SMILES): O=C(/C=C/c1ccccc1)N1CCN(C(c2ccccc2)c2ccc(Cl)cc2)CC1 (configuration not stated)
- IC50 (Neuromedin-K receptor): 60 µM

Structure (SMILES): N#Cc1ccc(C(=O)Nc2ccccc2N2CCCCC2)cc1
- IC50 (Interstitial collagenase): 55 µM
